Series [1] in a line: Evaluation of metabolic stability in human liver microsome (human liver S9 components). Conditions: liver S9 components (headed liver microsome); human liver S9 components 4 mg/mL, pH 7.4, 37° C., LC-MS/MS; read-out: T1/2 (h) Liver microsome (converted). It is filed as in vitro ADME. As for the experimental part:
To 1 mL of buffer containing 5 mM MgCl2 and 50 mM K2HPO4 (pH 7.4) was added 2 μL of a solution of 50 mM compound to be tested in DMSO, then human liver S9 components were added to reach 4 mg/mL, and the mixture was incubated at 37° C. 100 μL of sample was taken at different time points, into which 300 μL of methanol was added, and the mixture was centrifuged at 14000 rpm for 30 min at 4° C. 100 μL of supernatant was taken, into which 100 μL of methanol was added, and the mixture was frozen at −20° C. for later use.
(§1) The content of the compound to be tested in plasma or liver microsome was determined by LC-MS/MS, and the half-life was calculated. Instruments: Prominence 20 A liquid chromatograph from Shimadzu, API 4000 Q-TRAP mass spectrometer from Applied Biosystems; mass spectrometry conditions: ESI negative ion detection; chromatographic column: Diamonsil C18 (100×4.6 mm, 5 μm) chromatographic column; column temperature: 40° C.; flow rate: 0.5 mL/min. Mobile phase A: methanol; mobile phase B: 5% aqueous methanol solution (containing 2 mM ammonium formate); flow rate: 0.5 mL/min; gradient elution as shown in the following table: […]
(Liver microsomes are a subcellular fraction often used to study metabolism.)

The next series in a line: in vitro. It counts as in vitro ADME. Particulars: human plasma containing 5 mM MgCl2, 37° C., LC-MS/MS; read-out: T1/2 (h) Plasma (converted). As for the experimental part: To 1 mL of human plasma containing 5 mM MgCl2 was added 2 μL of a solution of 50 mM compound to be tested in DMSO, and the mixture was incubated at 37° C. 100 μL of sample was taken at different time points, into which 200 μL of methanol was added, and the mixture was centrifuged at 14000 rpm at 4° C. for 30 min. 100 μL of supernatant was taken, into which 100 μL of methanol was added, and the mixture was frozen at −20° C. for later use.
as §1

Series [2] is described as follows: Pharmacokinetic evaluation in beagle dogs. It counts as in vivo. Particulars: for Cmax: male, dog, po, plasma, intragastric, II-1 5 mg/kg, II-6 5.13 mg/kg, I-5-B 5.27 mg/kg, read-out: Cmax(ng/ml) Prodrug prototype. As for the experimental part:
Male beagle dogs (7-8 months old, weighing 7-10 kg) were randomly divided into groups (2 beagle dogs per group) and weighed. The beagle dogs were fasted for 12 h before administration. The sample to be tested at a certain concentration was ground and suspended in 0.5% sodium carboxymethylcellulose solution, and II-1 (5 mg/kg), II-6 (5.13 mg/kg) or I-5-B (5.27 mg/kg) was administered intragastrically to the beagle dogs. Before administration and 0.5 h, 1 h, 2 h, 4 h, 6 h, 8 h, 10 h and 24 h after administration, 0.5 mL of blood was collected from the cephalic vein of forelimb separately, anticoagulated with sodium heparin, centrifuged to separate out the plasma, which was stored at −80° C. for determination.
50 μL of drug-containing plasma was taken, into which 50 μL of methanol and 100 μL of internal-standard acetaminophen methanol solution were added, and the mixture was vortexed for 1 min and centrifuged at 12000 rpm for 10 min at 4° C. The supernatant was taken and placed in an internal insert tube for quantitative analysis by LC-MS/MS (the method was the same as that in Example 7).

Another series concerns hepatitis B. Conditions: ducks; disclosed in CN103804417A; cited from earlier work.

Molecules are shown by their SMILES. Where only a bound is given, the exact number is not on record here.

Regarding `C=C1[C@H](CO[P@@](=O)(N[C@@H](C)C(=O)OC)Oc2ccc(Br)cc2)[C@@H](O)C[C@@H]1n1cnc2c(=O)[nH]c(N)nc21` [II-4, 2-amino-1,9-dihydro-9-[(1S,3R,4S)-4-hydroxy-3-((S)-((S)-1-methoxycarbonylethylamino-(4-bromo-phenyl)oxy-phosphoryl)-oxymethyl)-2-methylenecyclopentyl]-6H-purin-6-one], the results for the half-life at 100 µM (in series [1]; in “in vitro”) were 0.06 h and 6.2 h, respectively.

On to `C=C1[C@H](CO[P@@](=O)(N[C@@H](C)C(=O)OC)Oc2ccc(F)cc2)[C@@H](O)C[C@@H]1n1cnc2c(=O)[nH]c(N)nc21` [II-2, 2-amino-1,9-dihydro-9-[(1S,3R,4S)-4-hydroxy-3-((S)-((S)-1-methoxycarbonylethylamino-(4-fluoro-phenyl)oxy-phosphoryl)-oxymethyl)-2-methylenecyclopentyl]-6H-purin-6-one], for which the half-life at 100 µM in series [1] was 0.13 h; in the series “in vitro”, 10.6 h.

Turning to `C=C1[C@H](CO[P@@](=O)(N[C@@H](C)C(=O)OC(C)C)Oc2ccccc2)[C@@H](O)C[C@@H]1n1cnc2c(=O)[nH]c(N)nc21` [I-5-B, 2-amino-1,9-dihydro-9-[(1S,3R,4S)-4-hydroxy-3-((S)-((S)-1-isopropoxycarbonylethylamino-phenoxy-phosphoryl)-oxymethyl)-2-methylenecyclopentyl]-6H-purin-6-one, reference compound], in series [2], the “prodrug prototype present in plasma (in words)” value is listed as “high concentration”, the “transformation into the active form (in words)” value is on record as “can not be completely transformed into the active form” and the Cmax worked out at 864 ng/mL. In series [1], the half-life at 100 µM was 0.4 h. For the same molecule, in “in vitro”, the half-life at 100 µM is above 24 h. The “antiviral effect on hepatitis B in vivo (in words)” value in the series on hepatitis B is “good antiviral effect”.

As for `C=C1[C@H](CO[P@@](=O)(N[C@@H](C)C(=O)OC)Oc2ccc(Cl)cc2)[C@@H](O)C[C@@H]1n1cnc2c(=O)[nH]c(N)nc21` [II-3, 2-amino-1,9-dihydro-9-[(1S,3R,4S)-4-hydroxy-3-((S)-((S)-1-methoxycarbonylethylamino-(4-chloro-phenyl)oxy-phosphoryl)-oxymethyl)-2-methylenecyclopentyl]-6H-purin-6-one], the half-life at 100 µM in series [1] was 0.06 h; in the series “in vitro”, 7.5 h.

`C=C1[C@H](CO[P@@](=O)(N[C@@H](C)C(=O)OC)Oc2ccc(C)cc2)[C@@H](O)C[C@@H]1n1cnc2c(=O)[nH]c(N)nc21` [II-6, 2-amino-1,9-dihydro-9-[(1S,3R,4S)-4-hydroxy-3-((S)-((S)-1-methoxycarbonylethylamino-(4-methyl-phenyl)oxy-phosphoryl)-oxymethyl)-2-methylenecyclopentyl]-6H-purin-6-one]: the Cmax in series [2] came out at 633 ng/mL. The half-life at 100 µM in series [1] is 0.19 h; in the series “in vitro” it was 10.8 h.

Take `C=C1[C@H](CO[P@@](=O)(N[C@@H](C)C(=O)OC)Oc2ccc(OC)cc2)[C@@H](O)C[C@@H]1n1cnc2c(=O)[nH]c(N)nc21` [II-5, 2-amino-1,9-dihydro-9-[(1S,3R,4S)-4-hydroxy-3-((S)-((S)-1-methoxycarbonylethylamino-(4-methoxy-phenyl)oxy-phosphoryl)-oxymethyl)-2-methylenecyclopentyl]-6H-purin-6-one]: the half-life at 100 µM in series [1] is 0.03 h; in “in vitro”, 4.9 h.

On to `C=C1[C@H](CO[P@@](=O)(N[C@@H](C)C(=O)OC)Oc2ccccc2)[C@@H](O)C[C@@H]1n1cnc2c(=O)[nH]c(N)nc21` [II-1, 2-amino-1,9-dihydro-9-[(1S,3R,4S)-4-hydroxy-3-((S)-((S)-1-methoxycarbonylethylamino-phenoxy-phosphoryl)-oxymethyl)-2-methylenecyclopentyl]-6H-purin-6-one], for which the “plasma concentration of the prodrug prototype (in words, versus I-5-B)” value in series [2] (intragastric administration) is given as “significantly lower than that of the I-5-B”. In addition, the Cmax in series [2] stood at 331 ng/mL. The half-life at 100 µM was 0.27 h in series [1] and 15.3 h in the series “in vitro”.

The values above are taken from patent US12590097B2 (priority 2020, dated 2026).
